For 74 molecules, activation results are on record in PubChem BioAssay AID743394 (Broad Institute, 2014).

Calls of active or inactive are those of the source.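 How the source made its calls: active means 40% activation versus positive control reached by fitted dose-response curve at or below highest valid tested dose; inconclusive means poor fit quality, or flat fit with activation between 30% and 70%; inactive means the rest.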

A short description of one experiment: inactive X chromosome reactivation in XiGFP fibroblasts, dose response, imaging, 68-5-11 mouse fibroblasts, GFP, cherry-pick (AID 743394).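 Further: sensitizer 5-aza-dC present in the wells at 0.5 mM final.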 The following applies: 68-5-11 mouse fibroblast XiGFP reporter, % GFP-positive imaging, 3 d; at 19.5 µM (top of the series).
Take `Cc1cc(=O)oc2cc3c(cc12)CCCN3`: the activation is 0.76% (inactive).
For the molecule `Cc1cc(/C=C2/C(=O)NC(=O)N(Cc3ccco3)C2=O)c(C)n1-c1ccccc1O`, the activation is -0.049% (inactive).

The experiment is the same for the next values; noted with them: 68-5-11 mouse fibroblast XiGFP reporter, % GFP-positive imaging, 3 d; at 19.5 µM (top of the series); cells co-treated with 5-aza-dC sensitizer; scaled: neutral wells 0, ellipticine wells 100.
As for `O=[N+]([O-])/C=C/c1ccc2c(ccn2Cc2ccccc2)c1`, the activation was -0.06% (inactive).
In the case of `COc1ccc(C2=NOC3(CC(=O)N(c4ccc(F)cc4)C3=O)C2)cc1` (centres undefined), the activation is 0.015% (inactive).
In the case of `C=CC[C@@H](CC(=O)N(CCO)Cc1ccccc1)C(=O)NCCOC(=O)[C@@H](CC=C)Cc1ccc(F)cc1`, the activation was -0.009% (inactive).
The same measure, in the same setting: the same measure for `CC[N+]1=C(C)C(C)(C)c2cc(C)ccc21`: -0.032% (inactive).
With `O=C(COC(=O)COc1cccc(C(F)(F)F)c1)NC1CCS(=O)(=O)C1` (centres undefined), the activation was -0.034% (inactive).
Turning to `Cn1c(=O)c(C#N)c(-c2ccc(F)cc2)c2cc(C(=O)c3cc(Cl)cc(Cl)c3O)cnc21`, the activation is -0.044% (inactive).
Regarding `Nc1ccccc1Sc1ccc(C(F)(F)F)cc1[N+](=O)[O-]`, the activation was 0.953% (inactive).
The same measure, in the same setting: the same measure for `COc1ccc(C)c(-n2c(=O)n(Cc3ccccc3)c(=O)c3[nH]cnc32)c1`: -0.006% (inactive).
On to `CC(=O)N[C@@H](CC(=O)O)C(=O)O`, for which the activation was -0.053% (inactive).
Still for that read-out and setting: the figure for `COc1ccc2c3c(n(C)c2c1)[C@H](CO)N(Cc1ccccc1F)CC31CCN(CC2CC2)CC1` is 0.046% (inactive).
On the same count and under the same terms, the figure for `CCCC(=O)OCCNc1cc(Sc2nccn2C)c2nonc2c1[N+](=O)[O-]` is -0.034% (inactive); for `CC[C@]12c3[nH]c4cc(CCC(=O)N(C)C)ccc4c3CCN1C(=O)[C@@H](CC(=O)NCCC1=CCCCC1)C[C@@H]2C(=O)N1CCN(C(=O)c2ccco2)CC1` it is 0.011% (inactive).
Still for that read-out and setting: the figure for `Cc1oc2ccc(NS(=O)(=O)c3cccc4cccnc34)cc2c1C(=O)OC(C)C` is 0.423% (inactive); for `CN1CCN(S(=O)(=O)c2ccc(C#N)cc2)C(c2ccccc2)C1` (centres undefined) it is 0.227% (inactive); for `COc1ccc(C(=O)Nc2ccc3oc(-c4cccc(F)c4)nc3c2)cc1OC` it is 0.002% (inactive).
On to `NC(=NC(=O)c1cccc(C(F)(F)F)c1)c1ccc(C(F)(F)F)cn1`, for which the activation was 0.408% (inactive).
Same read-out and setting: the same measure for `CC(C)NC(=O)N(C)C[C@@H]1OCCCC[C@H](C)Oc2ccc(NC(=O)Nc3ccc(C(F)(F)F)cc3)cc2C(=O)N([C@H](C)CO)C[C@@H]1C`: 0.005% (inactive).
On the same count and under the same terms, the figure for `Cc1ccc(S(=O)(=O)Nc2cccc3c2O[C@H](CN(C)C(=O)Nc2cccc4ccccc24)[C@H](C)CN([C@H](C)CO)C3=O)cc1` is 0.028% (inactive); for `O=C1c2ccc3c4c(ccc(c24)C(=O)N1c1cccc(O)c1)C(=O)N(c1cccc(O)c1)C3=O` it is -0.037% (inactive); for `CCC(C(=O)Nc1cc(OC)c(NC(=O)c2ccccc2)cc1OC)c1ccccc1` (centres undefined) it is -0.037% (inactive).
Still for that read-out and setting: the figure for `N/C(=N\OC(=O)C12CC3CC(CC(C3)C1)C2)c1ccncc1` is 0.008% (inactive); for `COc1cc(CNc2nc3ccccc3n2C)cc(OC)c1OC` it is 0.013% (inactive); for `COc1cccc(CNC(=O)c2cc(S(=O)(=O)N3CCCC3)cn2C)c1` it is 0.095% (inactive).
Consider `Cc1ccc(S(=O)(=O)N(C)C[C@H]2OCCCC[C@@H](C)Oc3ccc(NC(=O)Nc4c(C)noc4C)cc3C(=O)N([C@H](C)CO)C[C@@H]2C)cc1`, for which the activation is -0.011% (inactive).
With `COC1=CC(=O)c2nc(Cl)ccc2C1=O`, the activation is 5.06% (inactive).
On the same count and under the same terms, the same measure for `COc1ccc(S(=O)(=O)Nc2ccc3c(c2)C(=O)N([C@@H](C)CO)C[C@H](C)[C@H](CN(C)C(=O)CCCN(C)C)OCCCC[C@H](C)O3)cc1`: 0.053% (inactive).
Turning to `C=CCn1c(=S)[nH]c2scc(-c3ccco3)c2c1=O`, the activation was 0.072% (inactive).
The same measure, in the same setting: the same measure for `COc1ccc(OCCN2CCC(C(=O)NC(c3ccc(C)cc3)c3ccccn3)CC2)cc1` (centres undefined): 0.883% (inactive); for `O=C1CCCC(O)=C1Sc1cc(Cl)c(Cl)cc1Cl`: 0.118% (inactive).
For the molecule `CC1C=NC(S(=O)(=O)N2CC[C@@H]3[C@@H](CO)N(C)c4ccc(-c5ccccc5)cc4[C@@H]32)=N1` (some centres undefined), the activation is 0.053% (inactive).
The same measure, in the same setting: the figure for `O=c1[nH]cnc2c1ncn2[C@H]1CC[C@@H](CO)O1` is -0.002% (inactive).
Still for that read-out and setting: the same measure for `Nc1nnc(SCC(=O)c2ccc([N+](=O)[O-])cc2)s1`: 0.961% (inactive); for `CCc1ccc(C(=O)NNc2ccc(S(N)(=O)=O)cc2)cc1`: -0.007% (inactive); for `O=C(c1ccc(Br)cc1)c1cc([N+](=O)[O-])ccc1N1CCOCC1`: 4.21% (inactive).
On to `Cc1ccc(NC(=O)c2ccc(=O)[nH]c2)cc1S(=O)(=O)N1CCCCCC1`, for which the activation was 0.105% (inactive).
The same measure, in the same setting: the figure for `CC(=O)N(C)C[C@@H]1Oc2ncc(-c3cccnc3)cc2C(=O)N([C@@H](C)CO)C[C@@H]1C` is 0.082% (inactive); for `C[C@@H]1CCCCO[C@@H](CN(C)C(=O)Nc2ccc(C(F)(F)F)cc2)[C@@H](C)CN([C@H](C)CO)C(=O)c2cc(NS(=O)(=O)c3ccc(F)cc3)ccc2O1` it is -0.031% (inactive); for `CCOC(=O)c1sc(-c2ccc(F)cc2)cc1NC(=O)Nc1ccccc1OC` it is 0.169% (inactive).
As for `NC(=O)c1sc2nc3c(cc2c1N)CCCCCC3`, the activation is 0.065% (inactive).
With `Cc1ccc(S(=O)(=O)N(C)C[C@H]2Oc3ccc(NC(=O)Nc4ccccc4)cc3CC(=O)N([C@H](C)CO)C[C@@H]2C)cc1`, the activation was -0.035% (inactive).
Still for that read-out and setting: the same measure for `COc1ccc(C(=O)N/N=C/c2cc(Br)ccc2O)cc1OC`: -0.037% (inactive); for `CCc1ccccc1OCC(=O)Nc1ccc(N2CCCC2)cc1C`: 0.109% (inactive).
The same measure, in the same setting: the figure for `Cc1ccc(NC(=O)c2ncn(CCCNCCCN(C)C)n2)cc1C` is 0.041% (inactive); for `CCOc1ccc(N2C(=O)CC(Sc3nc(O)c(CC)c(=O)[nH]3)C2=O)cc1` (centres undefined) it is 0.001% (inactive); for `COc1ccccc1-c1ccc(/C=N/O)o1` it is -0.003% (inactive).
Same read-out and setting: the same measure for `CCOC(=O)C1(Cc2ccccc2C)CCCN(C(=O)CSC)C1` (centres undefined): -0.053% (inactive); for `CC(C)OC(=O)/C(=C\c1cccnc1)NC(=O)c1ccccc1`: -0.024% (inactive); for `O=C(O)c1ccccc1C1Nc2ccccc2C(=O)N1CCCN1CCOCC1` (centres undefined): 0.018% (inactive).
As for `Cc1ccc(S(=O)(=O)N(C)c2ccc(C)c([N+](=O)[O-])c2)cc1`, the activation was 0.488% (inactive).
Same read-out and setting: the same measure for `CCNC(=O)C[C@@H]1CC[C@H]2[C@@H](COC[C@@H](O)CN2C(=O)C2CCCC2)O1`: -0.016% (inactive).
Still for that read-out and setting: the same measure for `CCN1C(=O)C(=Cc2cccc(OC)c2Oc2ccc([N+](=O)[O-])cc2[N+](=O)[O-])SC1=S`: -0.008% (inactive).
With `COc1ccc(-c2nnc(NC(=O)c3ccc(F)cc3)o2)cc1`, the activation was -0.035% (inactive).
The same measure, in the same setting: the figure for `CCN1CCN(c2cc3nc(C)n(Cc4ccccc4)c(=O)c3cc2NC(=O)c2ccccc2F)CC1` is -0.127% (inactive); for `COc1ccc(N2CCN(C(CNC(=O)c3ccc4c(c3)OCO4)c3ccco3)CC2)cc1` (centres undefined) it is -0.08% (inactive).
On the same count and under the same terms, the figure for `CCOC(=O)c1sc2nc(CSc3ccccc3)[nH]c(=O)c2c1C` is 0.303% (inactive); for `CN(C1CCCCC1)S(=O)(=O)c1ccc(C(=O)N2CCN(c3nc4ccccc4s3)CC2)cc1` it is 0.125% (inactive).
With `COc1ccccc1N1CCN(C(=O)CN2C(=O)c3cccc4cccc(c34)C2=O)CC1`, the activation was 0.077% (inactive).
On the same count and under the same terms, the same measure for `COc1ccccc1/C=C/C(=O)OCC(=O)NC(=O)NC1CCCC1`: -0.012% (inactive).
The same measure, in the same setting: the figure for `CN(C)S(=O)(=O)c1cccc(C(=O)NCC2(N3CCOCC3)CCCCC2)c1` is -0.002% (inactive); for `COc1ccc(OC)c(/C=C/c2ccc3cccc(O)c3n2)c1` it is -0.024% (inactive).
On the same count and under the same terms, the same measure for `Cn1c2ccccc2c2cnn(CC(=O)Nc3ccccc3Br)c(=O)c21`: 0.034% (inactive).
On to `C[C@@H]1ON(C)[C@H]2C[C@H]3c4cc(-c5cccc(F)c5)ccc4CCN3C(=O)[C@@H]12`, for which the activation is 0.187% (inactive).
Same read-out and setting: the figure for `NNc1nc2c(-c3ccc(F)cc3)nnn2c2ccccc12` is 0.731% (inactive); for `CCCN(C(=O)c1ccc(-n2cncn2)c([N+](=O)[O-])c1)C1CCS(=O)(=O)C1` (centres undefined) it is -0.007% (inactive); for `CC1=Nc2ccccc2/C1=C\c1sc(Nc2ccc(C)cc2)nc1O` it is 0.535% (inactive).
The same measure, in the same setting: the figure for `CC(O)CN(CC(C)O)c1ccc2c(c1)Cc1cc([N+](=O)[O-])ccc1-2` (centres undefined) is 11.6% (inactive); for `C[C@H]1CN([C@@H](C)CO)C(=O)c2cc(NC(=O)CCCCCC(=O)Nc3ccccc3N)ccc2O[C@H]1CN(C)C(=O)Nc1ccccc1` it is 0.04% (inactive); for `O=[N+]([O-])c1ccccc1-c1ccc(C(=S)N2CCN(c3ccccc3)CC2)o1` it is 0.417% (inactive).
Same read-out and setting: the same measure for `CS(=O)(=O)c1ccc(S(=O)CC(=O)OCc2ccccc2)c([N+](=O)[O-])c1` (centres undefined): -0.127% (inactive); for `COc1ccccc1NC(=S)N(CCCN1CCOCC1)Cc1cccs1`: -0.076% (inactive).
For `O=C(CCn1nc(-c2ccc(Cl)cc2)c2ccccc2c1=O)NN1CCOCC1`, the activation was -0.017% (inactive).

The same experiment, now with this note: 68-5-11 mouse fibroblast XiGFP reporter, % GFP-positive imaging, 3 d; at 21 µM (top of the series); cells co-treated with 5-aza-dC sensitizer; scaled: neutral wells 0, ellipticine wells 100.
On to `Cc1ccc(-c2ccccc2[C@@H]2[C@H](C#N)N(S(C)(=O)=O)[C@H]2CO)cc1`, for which the activation is 0.241% (inactive).
